Measurements reported in patent US11298396B2, “Agent for inhibiting or reducing light sensitivity” (Osaka University, priority 2017, dated 2022).
Residues, ends and D or L forms follow the SMILES beside them. *: point of attachment. Cbz = O=C(OCc1ccccc1)*

Key:
[1] = system: Klhl18 protein; assay: Inhibition of Klhl18-mediated degradation of Unc119 in transfected HEK293T cells, Western blotting; type: cell-based, mouse
Protocol: Retinal tissue was harvested from one month old Klhl18 KO mice and wild-type (C57BL/6J strain) mice (purchased from Japan SLC) according to the conventional method. The retinal tissue was dissolved in 2× sample buffer (0.1 M Tris-HCl (pH 6.8), 1% SDS, 5% β-mercaptoethanol, 10% glycerol, and 0.02% BPB) and heat-treated at 100° C. for 5 minutes. SDS-PAGE was performed and the separated proteins on the gel were electrically transferred to a PVDF membrane (Merck Millipore) at 12 V for 90 minutes. The PVDF membrane was blocked with blocking solution (5% skim milk and 0.05% Tween 20/TBS) with shaking at room temperature for 1 hour. The PVDF membrane was reacted with a primary antibody diluted in the blocking solution at 4° C. overnight. The primary antibody was anti-Unc119 antibody (mouse monoclonal, a gift from Dr. Haeseleer (University of Washington, USA) (Haeseleer, 2008), 1:10 dilution) or α-Tublin antibody (mouse monoclonal, Sigma, 1:6,000 dilution). After completion of reaction with the primary antibody, the PVDF membrane was washed three times with 0.05% Tween 20/TBS with shaking at room temperature for 10 minutes. The PVDF membrane was reacted with a secondary antibody diluted in the blocking solution at room temperature for 1 hour. The secondary antibody was anti-mouse IgG (H+L) HRP-conjugated antibody (goat polyclonal, Zymed, 1:6,000 dilution). After completion of reaction with the secondary antibody, the PVDF membrane was again washed three times with 0.05% Tween 20/TBS with shaking at room temperature for […]. The PVDF membrane was reacted with chemiluminescent reagent (Chemi-Lumi One (Nacalai Tesque)) or Pierce Western Blotting Substrate Plus (Thermo Fisher Scientific). The membrane was exposed to an X-ray film, and the protein of interest was detected using a film processor.
The HEK293T cell line was cultured in DMEM (Wako Pure Chemical Industries) supplemented with antibiotics (penicillin (100 μg/mL)/streptomycin (100 μg/mL)) and 10% FBS at 37° C. under 5% CO2. […]

[2] = system: BALB/c mice; assay: Light-induced damage in mice, electroretinogram (ERG) recording; type: in vivo, mouse; settings: 60 mg/kg subcutaneous; blue LED about 450 nm, about 7000 lux, 3 hours, cycle repeated for three days; ERG four days after final exposure; vs DMSO control (FIG. 24)
Protocol: Wild-type or Klhl18 KO mice of postnatal 2 months were light adapted or dark adapted. Light adaptation was performed at a light level of about 1000 lux for 1 hour or longer, and dark adaptation was performed by keeping the mice in a dark room for 4 hours or longer. Anesthesia was performed on dark-adapted or light-adapted mice with intraperitoneal injection of ketamine (100 mg/kg body weight per mouse) and xylazine (10 mg/kg body weight per mouse) in saline. Pupils were dilated with topical administration to the eyes with a mixture of 0.5% tropicamide and 0.5% phenylephrine HCl. ERG responses were measured with LED electrodes that emit a white flash (PuREC; Mayo Corporation). The mouse cornea was brought into contact with the electrodes, and stimulated with the stimulating flash using LED Visual Stimulator (LS-100, Mayo Corporation), and the ERG waves were recorded by TA-100 (Mayo Corporation) (FIGS. 7A and 8A). Strobe light stimulation with four levels of stimulus intensities ranging from −4.0 to 1.0 log cd−s/m^2 (−4.0, −3.0, −1.0 and 1 log cd−s/m^2) were used for the scotopic ERGs to measure the function of rod photoreceptor cells. […] From the wave data, a-waves and b-waves were quantified and expressed as the mean value±standard error. The photopic ERGs were recorded on a rod-suppressing white background of 1.3 log cd/m^2. […]

[3] = system: BALB/c mice; assay: Light-induced damage in mice, fluorescence immunostaining of the retina; type: in vivo, mouse; settings: 60 mg/kg subcutaneous; blue light damage for three days; vs DMSO control (FIG. 25)
Protocol: Fluorescent immunostaining was performed using the mouse retinal sections. Specifically, the mouse retinal sections prepared in the same manner as in Example 2 (2) were washed twice with PBS, and blocked with blocking buffer (4% Normal donkey serum/0.1% Triton X-100/PBS) at room temperature for 1 hour. The sections were reacted with a primary antibody at 4° C. overnight. The sections were washed three times with PBS, and reacted with a secondary antibody at room temperature for 2 hours. The primary antibody was anti-Rhodopsin antibody (rhodopsin, rabbit polyclonal, Santa Cruz, 1:500 dilution) or anti-S-opsin antibody (S-opsin (blue cone opsin), goat polyclonal, Santa Cruz, 1:500 dilution). The secondary antibody was Alexa Flour 488-conjugated anti-rabbit antibody (Thermo Fisher Scientific, 1:500 dilution) or Cy3 antibody (Jackson ImmunoResearch Laboratories, 1:500 dilution). After completion of reaction with the secondary antibody, the specimens were washed three times with PBS and sealed in mounting medium. All fluorescence images were taken under a confocal laser scanning microscope (LSM 700, Carl Zeiss).
MLN4924 (Chemscene) (60 mg/kg) was subcutaneously injected into the back of 4-weeks-old BALB/c mice (Japan SLC) that were kept in a dark place for 7 hours to be adapted to darkness. […]

[4] = system: BALB/c mice; assay: Light-induced damage in mice, thickness of the photoreceptor layer (toluidine blue staining); type: in vivo, mouse; settings: 60 mg/kg subcutaneous; blue light damage for three days; vs DMSO control (FIG. 26)
Protocol: Retinal sections of wild-type control mice and Klhl18 KO mice with light-induced damage were prepared in the same manner as in Example 2 (2). The mouse retinal sections were used to measure the thickness of the photoreceptor layer in the same manner as in Example 5. Specifically, the sections were washed with PBS and stained with 0.1% toluidine blue (Sigma)/PBS for 1 minute. The sections were washed three times with PBS, and sealed in mounting medium. The sealed specimens were observed under an upright microscope equipped with a differential interference contrast objective lens. The thickness of the photoreceptor layer was determined by measuring the distance from the optic nerve.
MLN4924 (Chemscene) (60 mg/kg) was subcutaneously injected into the back of 4-weeks-old BALB/c mice (Japan SLC) that were kept in a dark place for 7 hours to be adapted to darkness. Four hours later, the mice were placed in a box with four mirrored walls and a mirrored floor, and exposed to blue LED light. The wavelength of the light was about 450 nm, and the light reaching the mice was at about 7000 lux. After three hours of exposure to the blue light, the mice were kept in the normal environment for 10 hours. This cycle was repeated for three days. […]

## NS(=O)(=O)OC[C@@H]1C[C@@H](n2ccc3c(N[C@H]4CCc5ccccc54)ncnc32)C[C@@H]1O [MLN4924]
[1]; HEK293T cells, MLN4924 final concentration 0.3 μM, 6 hours, vs 0.3% DMSO (FIG. 15)
  degradation of the target Unc119 protein by the full-length Klhl18 protein: inhibits degradation of the target Unc119 protein by the full-length Klhl18 protein
[2]
  electric amplitudes of the a-waves (photoreceptor cell activity): higher than those in the control mice
  electric amplitudes of the b-waves (bipolar cell activity): higher than those in the control mice
[3]
  signal intensities and thickness of cone photoreceptor cells (markers: S-opsin and M-opsin): better retained as compared with those in the control mice
  signal intensities and thickness of rod photoreceptor cells (marker: rhodopsin): better retained as compared with those in the control mice
[4]
  thickness of the photoreceptor layer in the retina: better maintained as compared with that of the control mice

## CC(C)C[C@@H](C=O)NC(=O)[C@H](CC(C)C)NC(=O)[C@H](CC(C)C)NC(=O)OCc1ccccc1 [MG-132] (Cbz-Leu-Leu-Leu-aldehyde)
[1]; HEK293T cells, MG-132 final concentration 10 μM, 6 hours, vs 0.1% DMSO (FIG. 11)
  degradation of the target protein Unc119 by the full-length Klhl18 protein: inhibits degradation of the target protein Unc119 by the full-length Klhl18 protein

B1: C-terminal protein (C-terminal 298 residues) of the mouse Klhl18 gene: C-terminal 298 residues of mouse Klhl18 protein, expressed from plasmid pCAG-N-3× FLAG-C-Klhl18; acts as dominant negative (protein)
chain: RTRPRCCTSIAGLIYAVGGLNSAGDSLNVVEVFDPIANRWEKCHPMTTARSRVGVAVVNGLLYAIGGYDGQLRLSTVEAYNPETDTWTRVGSMNSKRSAMGTVVLDGQIYVCGGYDGNSSLNSVETYSPETDKWTVVTPMSSNRSAAGVTVFEGRIYVSGGHDGLQIFSSVEHYNHHTATWHPAASMLNKRCRHGAASLGSKMFVCGGYDGSGFLSIAEMYSSVADQWCLIVPMHTRRSRVSLVASCGRLYAVGGYDGQSNLSSVEMYDPETDRWTFMAPMACHEGGVGVGCIPLLTI
modifications: left off: small tags and cut ends
notes: C-terminal 298 residues of mouse Klhl18 protein, expressed from plasmid pCAG-N-3× FLAG-C-Klhl18; acts as dominant negative
[1]; HEK293T cells co-transfected with FLAG-Klhl18, FLAG-C-terminal Klhl18 and HA-Unc119 plasmids, anti-HA Western blot (FIG. 10)
  degradation of the target protein Unc119 by the full-length Klhl18 protein: inhibits degradation of the target protein Unc119 by the full-length Klhl18 protein
